From patent publication US9890429B2, “Compositions, kits, and methods for the identification, assessment, prevention, and therapy of cancer” (Dana-Farber Cancer Institute, Inc., priority 2012, dated 2018)

Tests used:
DLBCL cell lines [1] = experiment: Cell cycle analysis (Hoechst 33342, flow cytometry); type: cell-based, human; conditions: 72 hr treatment
Method: Cells were re-suspended in 1 ml of growth medium supplemented with 10 μg/ml Hoechst 33342 (Molecular Probes, Invitrogen) as final concentration. After 60 min at 37° C. in the dark. Analysis was performed on a FACSCAriallu cytometer (BD Biosciences) using the UV laser 350 nm with 20 mW. The cell cycle was plotted as histogram after excluding doublets.
Cell cycle analysis was performed at 72 h using Hoechst 33342 (Supplemental Methods) and a FACSCAriaIIu cytometer (BD Biosciences) with a UV laser at 350 nm with 20 mW.

[2] = tested on: RB1 phosphorylation (pS780 and pT821); conditions: DLBCL cell lines; 24 hr treatment
Method: For SDS-PAGE, total cell lysates were obtained using NP-40 lysis buffer (Tris-HCl 50 mM pH7.4, NaCl 150 mM, NaF 5 mM, EDTA 5 mM, 1% NP-40) supplemented with 1 mM activated Na3VO4 and complete proteinase inhibitor cocktail (Roche). […] After washing, membranes were probed against the indicated antigens following the manufacturer's recommendation. […] For chemoluminescence detection, enhanced ECL (GE Healthcare, Piscataway, N.J.) was used. After stripping, membranes were re-probed for GAPDH (1:3000, Santa Cruz Biotechnology) as loading control.

DLBCL cell lines [3] = experiment: Apoptosis (Annexin V/7-AAD staining, subG1 peaks); type: cell-based, human; conditions: subG1 peaks and Annexin V/7-AAD staining, 72 hr treatment
Method: Cellular apoptosis was analyzed with an APC AnnexinV/7ADD Apoptosis Detection kit (BD Pharmingen). AnnexinV/7AAD plots and cell cycle graphics were generated using FlowJo software V7.6.1 for Windows (Tree Star).

DLBCL cell lines [4] = experiment: Proliferation of DLBCL cell lines after chemical CDK inhibition (alamarBlue assay); type: cell-based, human
Method: The identities of the DLBCL cell lines used in this study were confirmed via STR profiling (PowerPlex®1.2 system [Promega]) and the online verification services of the cell banks JCRB and DSMZ (available on the World Wide Web at cellbank.nibio.go.jp/cellbank_e.html and dsmz.de/STRanalysis). All DLBCL cell lines were cultured at 37° C. in 5% C02. SU-DHL-6, SU-DHL-7, DB and Toledo were propagated in RPMI; OCI-Ly3, OCI-Ly18 and OCI-Ly19 were grown in IMDM. HEK293T cells for lentiviral production were cultured in DMEM. All media were supplemented with 10 mM HEPES buffer, 2 mM L-glutamine, 50 U/mL penicillin, 50 U/mL streptomycin and 10% heat-inactivated fetal calf serum (Invitrogen). To ensure that cells were in logarithmic growth phase, cells were diluted to 200,000 cells/ml 48 h prior to any experiment.
The pan-CDK inhibitor, flavopiridol (Selleck Chemicals, Houston, USA), was suspended in DMSO (10 mM stock solution) and stored at −20° C. until use. Following treatment, proliferation of DLBCL cell lines was assessed with the alamarBlue assay (Invitrogen, Carlsbad, Calif.).

[5] = tested on: luciferized mCherry+ (Toledo, Ly4 or Ly1) DLBCL cells xenotransplanted in NSG mice; experiment: In vivo efficacy in DLBCL xenografts (bioluminescence, flow cytometry, immunohistochemistry); set-up: species or system mouse; conditions: multiple DLBCL xenograft models in NSG mice, 7.5 mg/kg daily IP vs vehicle

`CN1CC[C@H](c2c(O)cc(O)c3c(=O)cc(-c4ccccc4Cl)oc23)[C@H](O)C1` [flavopiridol] was tested, and the “cell cycle (S phase, arrest)” value (DLBCL cell lines [1]) was “decreased S phase and induced cell cycle arrest”, the “phosphorylation of RB1 at CDK4/6 and CDK2-specific sites (pS780 and pT821)” value [2] was “decreased the phosphorylation of RB1” and the apoptosis (DLBCL cell lines [3]) was “increased apoptosis”. For the same compound, the “sensitivity of proliferation to lower doses” value (DLBCL cell lines [4]; DHL7, DLBCL cell line with single copy RB1 loss, lower doses) was “less sensitive”, the cellular proliferation (DLBCL cell lines [4]; DLBCL cell lines with decreased or absent p53 activity and CNAs of cell cycle components, nanomolar doses, 1-4 days) was “decreased the cellular proliferation” and the “lymphoma infiltration of bone marrow and spleen” value [5] was “significantly reduced”. The tumor growth ([5]; bioluminescence) was “significantly reduced tumor growth”.
